We go through two molecules from US20260184700A1, “PDK1 REGULATORY COMPOUND AND COMPOSITION CONTAINING THE SAME” (PROVIBIO CO., LTD., priority 2024, published 2026).

Data set [1] deals with Human Osteosarcoma, Saos-2. The experiment in a line: Relative cell viability, CCK-8, Saos-2. Format: cell-based. The method, then: Human-derived head and neck cancer cell line Fadu and osteosarcoma cell line Saos-2 were cultured in MEM medium containing 10% FBS, 100 U/mL penicillin, and 100 μg/mL streptomycin.
Following stabilization, the cells were harvested using Trypsin-EDTA treatment, centrifuged at 1,200 rpm for 3 minutes, the supernatant was removed, and the cells were resuspended in the same medium. They were then seeded into a 96-well plate (Costar 96-well cell culture plate, Corning) at 100 μL per well, and the conditions were adjusted as indicated in Table 5.
The cells were cultured in a 5% CO2 incubator at 37° C. for 24 hours, and after stabilization of the cells, each plate was washed with 200 μL of PBS per well and treated with 50 μL of culture medium per well. […]
After that, 10 μL of CCK-8 was added to each well, and the plate was incubated again at 37° C. in a 5% CO2 incubator for 2 hours.
In other words, when the survival rate of untreated cells (DMSO) is set at 100%, the relative cell survival rate in each group treated with the drug at different concentrations is indicated.

Data set [2] has as its system bleomycin-treated Balb/c mice. The experiment in a line: Bleomycin-induced pulmonary fibrosis animal model. Format: in vivo, mouse. Conditions: bleomycin mice lung, vs BLM-treated group. The source says:
To evaluate the therapeutic efficacy of the compound according to the present invention against pulmonary fibrosis, an animal model of pulmonary fibrosis induced by bleomycin intratracheal administration was established.
For this purpose, 8-week-old male Balb/c mice were subjected to general anesthesia using an inhalation anesthetic (2-3% isoflurane in oxygen), followed by disinfection of the neck region, skin incision, and exposure of the trachea.
Bleomycin (Sigma-Aldrich, USA) was directly administered into the trachea at a concentration of 5 mg/kg in a solution of 100 μL.
Two days prior to Bleomycin administration, the compound of the present invention or the comparative drug was administered intraperitoneally at the specified concentration and dose, and the administration was continued once daily for a total of 14 days.
The experimental groups included Normal, Bleomycin alone (BLM), and BLM plus the compound of the present invention (BLM+GO88, 0.2 mg/kg).
Ten days later, the mice were euthanized humanely using carbon dioxide gas, the trachea was incised, and PBS was injected into the trachea to remove blood from the lungs.
The lung tissue washed with PBS was excised, fixed in 4% paraformaldehyde solution for 24 hours, and then paraffin blocks and tissue sections were prepared. The prepared sections were subjected to pathological analysis using H & E, Masson's trichrome, and Sirius red staining.
Additionally, immunohistochemical (IHC) staining was performed for α-SMA (α-smooth muscle actin), an indicator of lung fibroblast activation.

With `CC1(C)CN(CCCCCCCCCCCCC(=O)Nc2nc(N)c3[nH]cnc3n2)CCO1` [Compound 11, 12-[4-(2,2-dimethylmorpholin-4-yl)]dodecyl-N-(6-aminopurine-2-yl)carboxamide], the “Relative cell viability (%)” value in data set [1] (Saos-2, 10 μM, 48 hours) came out at 24.98%; in data set [1] (Saos-2, 30 μM, 48 hours) it was 16.00%; in data set [1] (Saos-2, 50 μM, 48 hours) it was 36.73%; in data set [1] (Saos-2, 48 hours) it was 36.73%.

On to `Nc1ncccc1C(=O)NCCCCCCCCCCCCN1CCNCC1` [Compound 14, 2-Amino-N-(12-(piperazin-1-yl)dodecyl)nicotinamide], for which, in data set [2], the “collagen deposition (Masson's trichrome and Sirius red staining)” value is “significantly reduced”; the “expression of α-SMA (IHC)” value is listed as “significantly suppressed”.
